Reference: PMC6479789, “High Consistency of Structure-Based Design and X-Ray Crystallography: Design, Synthesis, Kinetic Evaluation and Crystallographic Binding Mode Determination of Biphenyl-N-acyl-β-D-Glucopyranosylamines as Glycogen Phosphorylase Inhibitors” (Molecules, 2019)

What was measured:
Type in all cases: biochemical
[1] = molecular target: T1, hlGPa (Homo sapiens, UniProt P06737); assay: inorganic phosphate release, glycogen synthesis direction
T1 construct: gene PYGL; recombinant human liver GPb (produced as described previously) converted to the phosphorylated a form with truncated gamma subunit of rabbit phosphorylase kinase
T1 sequence (P06737 2-847): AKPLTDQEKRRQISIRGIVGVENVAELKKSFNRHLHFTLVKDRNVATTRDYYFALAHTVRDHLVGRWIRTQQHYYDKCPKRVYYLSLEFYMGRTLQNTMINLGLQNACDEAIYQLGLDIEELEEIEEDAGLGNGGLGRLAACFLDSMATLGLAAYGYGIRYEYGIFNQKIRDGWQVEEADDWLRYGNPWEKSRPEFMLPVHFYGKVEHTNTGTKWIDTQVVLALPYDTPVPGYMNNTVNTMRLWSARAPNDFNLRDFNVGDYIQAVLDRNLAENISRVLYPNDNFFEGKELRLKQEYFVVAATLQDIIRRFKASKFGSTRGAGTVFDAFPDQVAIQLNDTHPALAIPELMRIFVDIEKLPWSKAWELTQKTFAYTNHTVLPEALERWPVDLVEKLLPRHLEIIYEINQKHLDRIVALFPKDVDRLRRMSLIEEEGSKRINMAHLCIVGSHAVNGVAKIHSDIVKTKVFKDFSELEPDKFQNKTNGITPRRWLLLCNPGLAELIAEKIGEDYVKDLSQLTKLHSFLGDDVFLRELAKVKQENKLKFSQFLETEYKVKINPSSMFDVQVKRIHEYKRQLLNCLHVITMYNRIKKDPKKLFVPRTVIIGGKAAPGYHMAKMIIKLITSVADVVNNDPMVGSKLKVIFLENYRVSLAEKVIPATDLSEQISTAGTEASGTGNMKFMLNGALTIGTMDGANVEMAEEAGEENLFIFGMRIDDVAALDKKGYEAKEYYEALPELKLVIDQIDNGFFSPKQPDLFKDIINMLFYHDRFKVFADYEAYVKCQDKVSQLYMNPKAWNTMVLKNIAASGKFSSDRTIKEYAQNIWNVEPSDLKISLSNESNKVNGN
Text: inorganic phosphate release, glycogen synthesis direction on hlGPa

[2] = molecular target: T2, rmGPa (Oryctolagus cuniculus, UniProt P00489); assay: as above
T2 construct: gene PYGM; native rabbit skeletal muscle GPb converted to the phosphorylated a form with truncated gamma subunit of rabbit phosphorylase kinase
T2 sequence (P00489 2-843): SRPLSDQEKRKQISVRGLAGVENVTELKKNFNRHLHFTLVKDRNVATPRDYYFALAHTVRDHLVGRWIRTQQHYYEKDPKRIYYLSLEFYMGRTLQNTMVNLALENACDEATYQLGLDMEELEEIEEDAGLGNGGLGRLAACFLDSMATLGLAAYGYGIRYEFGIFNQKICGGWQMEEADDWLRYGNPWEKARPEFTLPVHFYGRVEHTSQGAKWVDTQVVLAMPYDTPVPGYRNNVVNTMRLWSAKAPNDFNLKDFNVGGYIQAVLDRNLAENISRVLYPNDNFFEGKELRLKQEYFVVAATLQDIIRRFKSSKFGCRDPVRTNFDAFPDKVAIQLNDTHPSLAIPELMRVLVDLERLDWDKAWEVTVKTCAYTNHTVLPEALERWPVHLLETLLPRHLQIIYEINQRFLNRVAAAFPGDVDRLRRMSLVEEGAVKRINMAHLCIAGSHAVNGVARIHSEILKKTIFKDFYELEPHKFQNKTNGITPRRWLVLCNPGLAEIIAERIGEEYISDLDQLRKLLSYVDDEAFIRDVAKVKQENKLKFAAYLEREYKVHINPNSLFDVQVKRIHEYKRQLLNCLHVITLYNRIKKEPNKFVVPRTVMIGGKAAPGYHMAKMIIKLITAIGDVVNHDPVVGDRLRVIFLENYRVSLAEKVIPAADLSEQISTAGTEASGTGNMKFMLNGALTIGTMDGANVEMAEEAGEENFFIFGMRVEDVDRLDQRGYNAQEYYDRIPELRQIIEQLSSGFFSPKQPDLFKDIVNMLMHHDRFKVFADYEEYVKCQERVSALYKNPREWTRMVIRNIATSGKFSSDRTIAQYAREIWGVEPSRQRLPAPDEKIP
Text: inorganic phosphate release, glycogen synthesis direction on rmGPa

[3] = molecular target: T3, rmGPb (Oryctolagus cuniculus, UniProt P00489); assay: inorganic phosphate release, glycogen synthesis direction; crystal structure of the complex also solved
T3 construct: gene PYGM; native, purified from rabbit skeletal muscles (Fischer and Krebs), unphosphorylated b form
T3 sequence (P00489 2-843): T2 sequence (P00489 2-843)
Text: inorganic phosphate release, glycogen synthesis direction; crystal structure of the complex also solved on rmGPb

Ki [1] | Ki [2] | Ki [3] | SMILES
19.4 ± 0.2 µM | 12.8 ± 0.6 µM | 9.7 ± 0.7 µM | O=C(N[C@@H]1O[C@H](CO)[C@@H](O)[C@H](O)[C@H]1O)c1ccc(-c2ccccc2)cc1 [compound 4, N-(3,4,5-trihydroxy-6-(hydroxymethyl)tetrahydro-2H-pyran-2-yl)biphenyl-4-carboxamide]
45.6 ± 1.8 µM | 31.4 ± 2.2 µM | 56.1 ± 4.4 µM | O=C(N[C@@H]1O[C@H](CO)[C@@H](O)[C@H](O)[C@H]1O)c1cccc(-c2ccc(F)cc2)c1 [compound 3, 4’-fluoro-N-(3,4,5-trihydroxy-6-(hydroxymethyl)tetrahydro-2H-pyran-2-yl)biphenyl-3-carboxamide]
